Among the test systems are OVCAR-8; NCI-H226; OVCAR-5; COLO 205; Malme-3M; HCT-15; NCI-H23; NCI-H460; HOP-92; HCC 2998; SK-MEL-28; SF-295; SNB-19; OVCAR-4; M19-MEL; UACC-257; DMS-114; EKVX; SR; HT-29.
Assay in all cases: inhibition of tumour cell growth, NCI panel, 48 h

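Results reflect a 48-hour exposure of cells in 96-well plates to compound at five concentrations. GI50: concentration for 50% inhibition of growth.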 Calls of active or inactive are those of the source. Cut-off read from the data, not from the text of the source: active = GI50 up to about 1.1 µM and inactive = higher.

Consider `CN(C)CC[N+]1=Nc2cccc3cccc(c23)N1`, for which the GI50 with OVCAR-8 was 43.6 µM (inactive); in the test on NCI-H226, 71 µM (inactive); with OVCAR-5, > 94 µM (inactive); with COLO 205, 31.2 µM (inactive); in the test on Malme-3M it was > 100 µM (inactive); in the test with HCT-15, 62.7 µM. Also, the GI50 was > 77.3 µM (inactive) with NCI-H23; 16.9 µM (inactive) in the test on NCI-H460; 34.2 µM (inactive) in the test with HOP-92; > 95.7 µM (inactive) in the test with HCC 2998; > 100 µM (inactive) in the test on SK-MEL-28; > 100 µM (inactive) with SF-295. For the same molecule, the GI50 is > 49.5 µM (inactive) in the test with SNB-19; 49.5 µM (inactive) in the test with OVCAR-4; 47.1 µM (inactive) in the test with M19-MEL; > 100 µM (inactive) in the test on UACC-257; > 64.3 µM (inactive) with DMS-114; > 84.7 µM (inactive) with EKVX. The GI50 in the test on SR was 19.8 µM (inactive); in the test on HT-29, 35.3 µM (inactive).

Turning to `Cc1cc([N+](=O)[O-])ccc1NC(=O)C(=O)C(C(=O)c1ccccc1-c1ccccc1)C1OC(=O)c2ccccc21` (stereo not given), the GI50 with OVCAR-8 is 20.8 µM (inactive); in the test on NCI-H226, 12.2 µM (inactive); in the test with OVCAR-5, 15.4 µM (inactive); with COLO 205, 20.8 µM (inactive); in the test on Malme-3M, 13.1 µM (inactive); in the test on HCT-15, 15.1 µM. Also, the GI50 in the test on NCI-H23 was 25.6 µM (inactive); in the test with NCI-H460 it was 17 µM (inactive); with HOP-92 it was 16.9 µM (inactive); in the test on HCC 2998 it was 15.5 µM (inactive); with SK-MEL-28 it was 14.8 µM (inactive); with SF-295 it was 19.2 µM (inactive). The GI50 with SNB-19 is 3.44 µM (inactive); in the test on OVCAR-4 it was 26.2 µM (inactive); with M19-MEL it was 12.9 µM (inactive); in the test on UACC-257, 25.4 µM (inactive); with DMS-114, 13.1 µM (inactive); in the test with EKVX, > 10 µM (inactive). The GI50 in the test with SR is 16.4 µM (inactive); in the test with HT-29, 18.8 µM (inactive).

`COC(=O)C(CC(=O)Nc1ccc(Cl)c(Cl)c1)C(=O)C(=O)Nc1ccc(Cl)c(Cl)c1` (stereo not given): the GI50 is > 100 µM (inactive) in the test on OVCAR-8; > 100 µM (inactive) with NCI-H226; > 100 µM (inactive) in the test with OVCAR-5; > 100 µM (inactive) with COLO 205; > 100 µM (inactive) in the test with Malme-3M; above 100 µM with HCT-15. Moreover, the GI50 with NCI-H23, in the test with NCI-H460, with HOP-92, in the test on HCC 2998, with SK-MEL-28 and in the test on SF-295 was > 100 µM (inactive) in each case. The GI50 with SNB-19, with OVCAR-4, in the test on M19-MEL, in the test on UACC-257, in the test on DMS-114 and in the test on EKVX was > 100 µM (inactive) each time. Moreover, the GI50 in the test on SR is 33.3 µM (inactive); in the test with HT-29 it was > 100 µM (inactive).

The record behind these values is ChEMBL document CHEMBL1201862, “PubChem BioAssay data set” (2004).
